Patent publication US9067871B2, “Aminotetraline derivatives, pharmaceutical compositions containing them, and their use in therapy” (ABBVIE DEUTSCHLAND GMBH & CO KG, priority 2009, dated 2015)
Where a name gives a salt, the structure may show the parent alone. Read-outs that look alike come from different tables or passages of the source.

Key:
human GlyT1c transporter = human GlyT1c transporter (Homo sapiens (Human), UniProt P48067); assay: Radioligand binding assay using recombinant CHO cell membranes expressing human GlyT1; conditions: read-out: radioligand binding Kiapp
Description: 2. Radioligand binding assays using recombinant CHO cell membranes expressing human GlyT1: […]

human GlyT1c = human GlyT1c (Homo sapiens (Human), UniProt P48067); assay: [3H]-Glycine uptake into recombinant CHO cells expressing human GlyT1; type: cell-based
Procedure: 1. [^3H]-Glycine uptake into recombinant CHO cells expressing human GlyT1: Human GlyT1c expressing recombinant hGlyT1c—5_CHO cells were plated at 20,000 cells per well in 96 well Cytostar-T scintillation microplates (Amersham Biosciences) and cultured to sub-confluency for 24 h. […] 80 μl HBSS buffer were added, followed by 10 μl inhibitor or vehicle (10% DMSO) and 10 μl [^3H]-glycine (TRK71, Amersham Biosciences) to a final concentration of 200 nM for initiation of glycine uptake. The plates were placed in a Wallac Microbeta (PerkinElmer) and continuously counted by solid phase scintillation spectrometry during up to 3 hours. Nonspecific uptake was determined in the presence of 10 μM Org24598.

[1] = human GlyT1c-expressing CHO cell membranes
[2] = hGlyT1c_5_CHO cells, 200 nM [3H]-glycine

human GlyT1c transporter, sequence (P48067 whole entry): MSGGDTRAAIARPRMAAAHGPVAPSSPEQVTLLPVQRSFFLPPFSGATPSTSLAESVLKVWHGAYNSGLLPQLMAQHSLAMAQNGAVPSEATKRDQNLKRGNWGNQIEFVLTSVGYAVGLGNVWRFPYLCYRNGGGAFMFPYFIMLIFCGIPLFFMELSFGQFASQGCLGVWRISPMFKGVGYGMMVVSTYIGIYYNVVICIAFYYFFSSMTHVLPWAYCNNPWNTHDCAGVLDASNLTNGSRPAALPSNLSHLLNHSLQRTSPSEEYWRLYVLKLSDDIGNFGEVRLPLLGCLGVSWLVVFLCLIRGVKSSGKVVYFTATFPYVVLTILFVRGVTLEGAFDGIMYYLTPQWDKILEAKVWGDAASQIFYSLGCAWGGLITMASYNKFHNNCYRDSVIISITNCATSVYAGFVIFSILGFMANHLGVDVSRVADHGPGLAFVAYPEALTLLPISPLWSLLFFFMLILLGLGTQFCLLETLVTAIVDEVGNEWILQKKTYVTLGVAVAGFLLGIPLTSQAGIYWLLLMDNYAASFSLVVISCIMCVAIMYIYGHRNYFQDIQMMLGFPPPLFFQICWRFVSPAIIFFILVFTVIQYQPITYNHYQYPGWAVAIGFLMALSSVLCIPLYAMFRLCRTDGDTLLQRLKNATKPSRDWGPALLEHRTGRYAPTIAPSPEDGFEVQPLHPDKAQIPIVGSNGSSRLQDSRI
human GlyT1c, sequence (P48067 whole entry): as above

SMILES	Ki (human GlyT1c transporter; [1])	IC50 (human GlyT1c; [2])	Ki (human GlyT1c transporter)	IC50 (human GlyT1c)
CCOC(=O)NC1CCc2ccc(OCCNS(=O)(=O)CCC(F)(F)F)cc2C1Cc1ccc(Cl)c(Cl)c1 (stereo not shown) [Example 26, {1-(3,4-Dichloro-benzyl)-7-[2-(3,3,3-trifluoro-propane-1-sulfonylamino)-ethoxy]-1,2,3,4-tetrahydro-naphthalen-2-yl}-carbamic acid ethyl ester]	≤ 10 µM	≤ 1000 µM		
Cn1cnc(S(=O)(=O)NCCOc2ccc3c(c2)C(Cc2ccc(Cl)cc2)C(N)CC3)c1 (stereo not shown) [Example 27, 1-Methyl-1H-imidazole-4-sulfonic acid {2-[7-amino-8-(4-chloro-benzyl)-5,6,7,8-tetrahydronaphthalen-2-yloxy]-ethyl}-amide hydrochloride]	≤ 0.01 µM	≤ 0.01 µM		
Cn1cc(S(=O)(=O)NCCOc2ccc3c(c2)C(Cc2ccc(Cl)cc2)C(N)CC3)cn1 (stereo not shown) [Example 28, 1-Methyl-1H-pyrazole-4-sulfonic acid {2-[7-amino-8-(4-chloro-benzyl)-5,6,7,8-tetrahydronaphthalen-2-yloxy]-ethyl}-amide hydrochloride]	≤ 0.01 µM	≤ 0.01 µM		
N#Cc1ccc2c(c1)C(Cc1ccc(Cl)cc1)C(N)CC2 (stereo not shown) [Example 30, 7-Amino-8-(4-chlorobenzyl)-5,6,7,8-tetrahydronaphthalene-2-carbonitrile hydrochloride]	≤ 100 µM	≤ 100 µM		
CCOC(=O)NC1CCc2ccc(C#N)cc2C1Cc1ccc(Cl)c(Cl)c1 (stereo not shown) [Example 32, Ethyl [7-cyano-1-(3,4-dichlorobenzyl)-1,2,3,4-tetrahydronaphthalen-2-yl]carbamate]	≤ 10 µM	≤ 100 µM		
NC1CCc2ccc(OCCN3CCCS3(=O)=O)cc2C1Cc1cccc(Cl)c1 (stereo not shown) [Example 33, 1-(3-chlorobenzyl)-7-[2-(1,1-dioxidoisothiazolidin-2-yl)ethoxy]-1,2,3,4-tetrahydronaphthalen-2-amine hydrochloride]	≤ 1 µM	≤ 1 µM		
CC(C)(C)OC(=O)NC1CCc2ccc(C#N)cc2C1Cc1ccc(Cl)c(Cl)c1 (stereo not shown) [Example 34, tert-Butyl[7-cyano-1-(3,4-dichlorobenzyl)-1,2,3,4-tetrahydronaphthalen-2-yl]carbamate]	≤ 10 µM	≤ 1000 µM		
NC1CCc2ccc(O)cc2C1Cc1ccc(Cl)c(Cl)c1 (stereo not shown) [Example 35, 7-Amino-8-(3,4-dichlorobenzyl)-5,6,7,8-tetrahydronaphthalen-2-ol trifluoroacetate (salt)]	≥ 100 µM	≤ 100 µM		
NC1CCc2ccc(OC(F)F)cc2C1Cc1ccc(Cl)cc1 (stereo not shown) [Example 36, 1-(4-chlorobenzyl)-7-(difluoromethoxy)-1,2,3,4-tetrahydronaphthalen-2-amine hydrochloride]	≤ 100 µM	≤ 10 µM		
O=C(NC1CCc2ccc(O)cc2C1Cc1ccc(Cl)cc1)OCc1ccccc1 (stereo not shown) [Example 37, Benzyl [1-(4-chlorobenzyl)-7-hydroxy-1,2,3,4-tetrahydronaphthalen-2-yl]carbamate]	≤ 10 µM	≤ 100 µM		
CCCS(=O)(=O)NCc1ccc2c(c1)C(Cc1ccc(Cl)c(Cl)c1)C(NC(=O)OC(C)(C)C)CC2 (stereo not shown) [Example 39, tert-Butyl[1-(3,4-dichlorobenzyl)-7-{[(propylsulfonyl)amino]methyl}-1,2,3,4-tetrahydronaphthalen-2-yl]carbamate]	≤ 10 µM	≤ 1000 µM		
NC1CCc2ccc(CNS(=O)(=O)CCCF)cc2C1Cc1ccc(Cl)c(Cl)c1 (stereo not shown) [Example 41, N-{[7-Amino-8-(3,4-dichlorobenzyl)-5,6,7,8-tetrahydronaphthalen-2-yl]methyl}-3-fluoropropane-1-sulfonamide hydrochloride]	≤ 10 µM	≤ 100 µM		
Cn1cc(S(=O)(=O)NCCOc2ccc3c(c2)C(Cc2cccc(Cl)c2)C(N)CC3)cn1 (stereo not shown) [Example 47, 1-Methyl-1H-pyrazole-4-sulfonic acid {2-[7-amino-8-(3-chloro-benzyl)-5,6,7,8-tetrahydronaphthalen-2-yloxy]-ethyl}-amide hydrochloride]	≤ 0.01 µM	≤ 0.01 µM		
Cn1cnc(S(=O)(=O)NCCOc2ccc3c(c2)C(Cc2cccc(Cl)c2)C(N)CC3)c1 (stereo not shown) [Example 48, 1-Methyl-1H-imidazole-4-sulfonic acid {2-[7-amino-8-(3-chloro-benzyl)-5,6,7,8-tetrahydronaphthalen-2-yloxy]-ethyl}-amide hydrochloride]	≤ 0.01 µM	≤ 0.01 µM		
CCOC(=O)NC1CCc2ccc(OCCNS(=O)(=O)c3cccs3)cc2C1Cc1cccc(Cl)c1 (stereo not shown) [Example 50, {1-(3-Chloro-benzyl)-7-[2-(thiophene-2-sulfonylamino)-ethoxy]-1,2,3,4-tetrahydronaphthalen-2-yl}-carbamic acid ethyl ester]	≤ 1 µM	≤ 10 µM		
CCOC(=O)NC1CCc2ccc(OCCNS(=O)(=O)c3ccc(Cl)s3)cc2C1Cc1cccc(Cl)c1 (stereo not shown) [Example 51, {1-(3-Chloro-benzyl)-7-[2-(5-chloro-thiophene-2-sulfonylamino)-ethoxy]-1,2,3,4-tetrahydronaphthalen-2-yl}-carbamic acid ethyl ester]	≤ 100 µM	≤ 1000 µM		
CCOC(=O)NC1CCc2ccc(OCCNS(=O)(=O)c3cnc(C)[nH]3)cc2C1Cc1cccc(Cl)c1 (stereo not shown) [Example 52, {1-(3-Chloro-benzyl)-7-[2-(2-methyl-3H-imidazole-4-sulfonylamino)-ethoxy]-1,2,3,4-tetrahydro-naphthalen-2-yl}-carbamic acid ethyl ester]	≤ 10 µM	≤ 10 µM		
CCOC(=O)NC1CCc2ccc(OCCNS(=O)(=O)c3ccc(C)s3)cc2C1Cc1cccc(Cl)c1 (stereo not shown) [Example 53, {1-(3-Chloro-benzyl)-7-[2-(5-methyl-thiophene-2-sulfonylamino)-ethoxy]-1,2,3,4-tetrahydro-naphthalen-2-yl}-carbamic acid ethyl ester]	≤ 10 µM	≤ 1000 µM		
CCCS(=O)(=O)NCCOc1ccc2c(c1)C(Cc1cccc(Cl)c1)C(N)CC2 (stereo not shown) [Example 55, Propane-1-sulfonic acid {2-[7-amino-8-(3-chloro-benzyl)-5,6,7,8-tetrahydro-naphthalen-2-yloxy]-ethyl}-amide hydrochloride]			≤ 0.01 µM	≤ 0.1 µM
Cc1ncc(S(=O)(=O)NCCOc2ccc3c(c2)C(Cc2cccc(Cl)c2)C(N)CC3)[nH]1 (stereo not shown) [Example 58, 2-Methyl-3H-imidazole-4-sulfonic acid {2-[7-amino-8-(3-chloro-benzyl)-5,6,7,8-tetrahydronaphthalen-2-yloxy]-ethyl}-amide]	≤ 1 µM	≤ 10 µM		

Continued, in another order:

Ki (human GlyT1c transporter; [1])	IC50 (human GlyT1c; [2])	SMILES	Ki (human GlyT1c transporter)	IC50 (human GlyT1c)
≤ 0.1 µM	≤ 1 µM	CN(C)S(=O)(=O)NCCOc1ccc2c(c1)C(Cc1ccc(Cl)c(Cl)c1)C(N)CC2 (stereo not shown) [Example 25, N′-(2-{[7-amino-8-(3,4-dichlorobenzyl)-5,6,7,8-tetrahydronaphthalen-2-yl]oxy}ethyl)-N,N-dimethylsulfuric diamide hydrochloride]		
≤ 10 µM	≤ 100 µM	N#Cc1ccc2c(c1)C(Cc1ccc(Cl)c(Cl)c1)C(N)CC2 (stereo not shown) [Example 29, 7-Amino-8-(3,4-dichlorobenzyl)-5,6,7,8-tetrahydronaphthalene-2-carbonitrile trifluoroacetate]		
≤ 100 µM	≤ 100 µM	CC(C)(C)OC(=O)NC1CCc2ccc(CN)cc2C1Cc1ccc(Cl)c(Cl)c1 (stereo not shown) [Example 38, tert-Butyl[7-(aminomethyl)-1-(3,4-dichlorobenzyl)-1,2,3,4-tetrahydronaphthalen-2-yl]carbamate]		
≤ 1 µM	≤ 1 µM	CCOC(=O)NC1CCc2ccc(OCCNS(=O)(=O)c3cnn(C)c3)cc2C1Cc1cccc(Cl)c1 (stereo not shown) [Example 46, {1-(3-Chloro-benzyl)-7-[2-(1-methyl-1H-pyrazole-4-sulfonylamino)-ethoxy]-1,2,3,4-tetrahydro-naphthalen-2-yl}-carbamic acid ethyl ester]		
≤ 100 µM	≤ 100 µM	CCOC(=O)NC1CCc2ccc(OCCNS(=O)(=O)c3sc(C)nc3C)cc2C1Cc1cccc(Cl)c1 (stereo not shown) [Example 49, {1-(3-Chloro-benzyl)-7-[2-(2,4-dimethyl-thiazole-5-sulfonylamino)-ethoxy]-1,2,3,4-tetrahydro-naphthalen-2-yl}-carbamic acid ethyl ester]		
≤ 10 µM	≥ 100 µM	CCOC(=O)NC1CCc2ccc(OCCNS(=O)(=O)c3cc(C)cs3)cc2C1Cc1cccc(Cl)c1 (stereo not shown) [Example 54, {1-(3-Chloro-benzyl)-7-[2-(4-methyl-thiophene-2-sulfonylamino)-ethoxy]-1,2,3,4-tetrahydro-naphthalen-2-yl}-carbamic acid ethyl ester]		
≤ 0.1 µM	≤ 1 µM	NC1CCc2ccc(OCCNS(=O)(=O)c3cccs3)cc2C1Cc1cccc(Cl)c1 (stereo not shown) [Example 56, Thiophene-2-sulfonic acid {2-[7-amino-8-(3-chloro-benzyl)-5,6,7,8-tetrahydro-naphthalen-2-yloxy]-ethyl}-amide]		
≤ 1 µM	≤ 10 µM	Cc1nc(C)c(S(=O)(=O)NCCOc2ccc3c(c2)C(Cc2cccc(Cl)c2)C(N)CC3)s1 (stereo not shown) [Example 57, 2,4-Dimethyl-thiazole-5-sulfonic acid {2-[7-amino-8-(3-chloro-benzyl)-5,6,7,8-tetrahydronaphthalen-2-yloxy]-ethyl}-amide]		
≤ 1 µM	≤ 10 µM	NC1CCc2ccc(OCCNS(=O)(=O)c3ccc(Cl)s3)cc2C1Cc1cccc(Cl)c1 (stereo not shown) [Example 59, 5-Chloro-thiophene-2-sulfonic acid {2-[7-amino-8-(3-chloro-benzyl)-5,6,7,8-tetrahydronaphthalen-2-yloxy]-ethyl}-amide]		
